Test results as given in US8735588B2, “Nematocidal sulfonamides” (E I Du Pont De Nemours and Company, priority 2009, dated 2014).

melting point [°C]	Structure (SMILES)
244 to 245	Cc1cc(S(=O)(=O)NC(=O)c2cn3cc(C(F)(F)F)cc(Cl)c3n2)c(C)cc1C#N [Compound 19, 8-chloro-N-[(4-cyano-2,5-dimethylphenyl)sulfonyl]-6-(trifluoromethyl)imidazo[1,2-a]pyridine-2-carboxamide]
> 250	Cc1cc(S(=O)(=O)[N-]C(=O)c2cn3cc(C(F)(F)F)cc(Cl)c3n2)c(C)cc1C#N.[Na+] [Compound 477]
> 250	COc1ccc(Cl)c(S(=O)(=O)[N-]C(=O)c2cn3cc(C(F)(F)F)cc(Cl)c3n2)c1.[Na+] [Compound 478]
185 to 186	Cc1cc(S(=O)(=O)NC(=O)c2cn3cc(C(F)(F)F)cc(Cl)c3n2)c(C)cc1C#N [Compound 479]

Second part, the compound before the results:

Structure (SMILES)	melting point [°C]
CCc1ccc(Cl)c(S(=O)(=O)NC(=O)c2cn3cc(C(F)(F)F)cc(Cl)c3n2)c1 [Compound 356, 8-chloro-N-[(2-chloro-5-ethylphenyl)sulfonyl]-6-(trifluoromethyl)imidazo[1,2-a]pyridine-2-carboxamide]	> 250
CCn1cc(S(=O)(=O)NC(=O)c2cn3cc(C(F)(F)F)cc(Cl)c3n2)c(C)n1 [Compound 357, 8-chloro-N-[(1-ethyl-3-methyl-1H-pyrazol-4-yl)sulfonyl]-6-(trifluoromethyl)-imidazo[1,2-a]pyridine-2-carboxamide]	251 to 252
